Test system: AB527-expressing cells
Assay: Effect of valeric acid on cell growth and antibody production
Assay type: cell-based, Chinese Hamster
Details: for Maximum Viable Cell Density: 14 days; for Doubling Time (DT): in h (unit assumed)
Protocol: To determine the effect of valeric acid on cell growth, AB527-expressing cells were cultured in GIBCO-CD-CHO complete medium supplemented with valeric acid to a concentration of 0 mM, 1 mM, 2 mM, 4 mM, or 8 mM. Cells were cultured for 14 days and viable cell density, percent viability, and integral viable cell density were determined using a CEDEX automated cell counter on days 0, 3, 5, 7, 10, 13, and 14. Antibody production was determined for each group of cultured cells on day 14 by protein A HPLC.

CCCCC(=O)O [Valeric Acid, valeric acid]
Integral of Viable Cell Density (IVC) (1 mM valeric acid): 6.74E+7 cells · day/mL
Specific Antibody Production Rate (Qp) (1 mM valeric acid): 58.44 mg/10^9 cells/day
Maximum Viable Cell Density (1 mM valeric acid): 94.60 10^5/mL
Final Antibody Titer (1 mM valeric acid, day 14): 4137.1 mg/L
antibody titer higher than that of the control culture (1 mM valeric acid, day 14): 36%
Final Antibody Titer (1 mM valeric acid, day 14, listed as valeric acid): 4137 mg/L
Doubling Time (DT) (1 mM valeric acid): 24.17
Integral of Viable Cell Density (IVC) (2 mM valeric acid): 6.55E+7 cells · day/mL
Specific Antibody Production Rate (Qp) (2 mM valeric acid): 54.45 mg/10^9 cells/day
Maximum Viable Cell Density (2 mM valeric acid): 81.00 10^5/mL
Final Antibody Titer (2 mM valeric acid, day 14): 3706.7 mg/L
Doubling Time (DT) (2 mM valeric acid): 24.17
Integral of Viable Cell Density (IVC) (4 mM valeric acid): 6.72E+7 cells · day/mL
Specific Antibody Production Rate (Qp) (4 mM valeric acid): 52.24 mg/10^9 cells/day
Maximum Viable Cell Density (4 mM valeric acid): 77.40 10^5/mL
Final Antibody Titer (4 mM valeric acid, day 14): 3600.1 mg/L
Doubling Time (DT) (4 mM valeric acid): 24.17
Integral of Viable Cell Density (IVC) (8 mM valeric acid): 4.76E+7 cells · day/mL
Specific Antibody Production Rate (Qp) (8 mM valeric acid): 56.16 mg/10^9 cells/day
Maximum Viable Cell Density (8 mM valeric acid): 54.40 10^5/mL
maximum cell density (8 mM valeric acid, at day 7): 5.4×10^6 cells/mL
viability (8 mM valeric acid, at day 7): 67.4%
Final Antibody Titer (8 mM valeric acid, day 14): 2760.4 mg/L
Doubling Time (DT) (8 mM valeric acid): 24.17

Source: patent US8956832B2, “Cells expressing anti-GD2 antibodies and methods related thereto” (Morphotek, Inc., priority 2008, dated 2015)
